Assay results from the NIST ThermoML archive (doi:10.1016/j.fluid.2013.01.003).

Conditions: 101.33 kPa, Liquid; for electrical conductivity: Alternating current cell with electrodes; for viscosity: Falling or rolling sphere viscometry; for mass density: Vibrating tube method

O=S(=O)([N-]S(=O)(=O)C(F)(F)F)C(F)(F)F.OCC[n+]1ccccc1
Conditions	electrical conductivity [S/m]	mass density [kg/m3]	viscosity [mPa·s]
273.15 K	0.0435	1614.7	645
278.15 K	0.0655	1609.2	421.9
283.15 K	0.0945	1604	285.8
288.15 K	0.132	1599.44	200.9
293.15 K	0.178	1594.47	145.7
298.15 K	0.233	1589.51	108.7
303.15 K	0.299	1584.59	83.19
313.15 K	0.461	1574.82	52.03
323.15 K	0.668	1565.16	34.91
333.15 K	0.912	1555.59	24.77
343.15 K	1.2	1546.08	18.37
353.15 K	1.52	1536.66	14.12
363.15 K	–	1527.29	11.18
